Assay [1] deals with mucoid P. aeruginosa strains derived from cystic fibrosis patients. Briefly: OPK assay, mucoid isolates. The class given is cell-based, Pseudomonas aeruginosa. The settings on record: FIG. 2D. As to the method:
This example describes the evaluation of prioritized human IgG1 antibodies to promote OPK of P. aeruginosa. […] OPK assays were performed as described in (DiGiandomenico, A., et al., Infect Immun 72, 7012-7021 (2004)), with modifications. Briefly, assays were performed in 96-well plates using 0.025 ml of each OPK component; P. aeruginosa strains; diluted baby rabbit serum; differentiated HL-60 cells; and monoclonal antibody. In some OPK assays, luminescent P. aeruginosa strains, which were constructed as described (Choi, K. H., et al., Nat Methods 2, 443-448 (2005)), were used. Luminescent OPK assays were performed as described above but with determination of relative luciferase units (RLUs) using a Perkin Elmer ENVISION Multilabel plate reader (Perkin Elmer).
The ability of Cam-003 to mediate OPK activity against representative non-mucoid strains from clinically relevant O-antigen serotypes and against mucoid P. aeruginosa strains which were derived from cystic fibrosis patients was evaluated.

In another assay the test system is P. aeruginosa PAO10 LPS. Briefly: Endotoxemia (LPS challenge) model. The following applies: control mice dosed with unconjugated mAb. The class given is in vivo, C57Bl/6 mice. As to the method:
In particular, C57Bl/6 mice (10 per group) were dosed i.p. with mAb or PMB-mAb conjugate 6 h prior to challenge with P. aeruginosa PAO10 LPS (Sigma) and D-galactosamine. PMB control was dosed i.p. 2 h prior to challenge at 0.2 mg/kg and typically provides 80-100% protection. Control mice dosed with unconjugated CAM-003 all died within 18 h.
TM conjugates were dosed at 45, 15 and 5 mg/kg.

Assay [2] relates to P. aeruginosa PAO1.lux association with A549 cells. Briefly: Cell attachment assay, PAO1.lux to A549 cells. The settings on record: MOI of 10, FIG. 4, FIG. 9B. Format: cell-based, Pseudomonas aeruginosa. As to the method:
Anti-Psl antibodies were added to a confluent monolayer of A549 cells (an adenocarcinoma human alveolar basal epithelial cell line) grown in opaque 96-well plates (Nunc Nunclon Delta). Log-phase luminescent P. aeruginosa PAO1 strain (PAO1.lux) was added at an MOI of 10. After incubation of PAO1.lux with A549 cells at 37° C. for 1 hour, the A549 cells were washed, followed by addition of LB+0.5% glucose. Bacteria were quantified following a brief incubation at 37° C. as performed in the OPK assay described in Example 2. Measurements from wells without A549 cells were used to correct for non-specific binding.

Assay [3] concerns Psl on in vivo passaged P. aeruginosa strains. Kind of assay: Flow cytometry of in vivo passaged P. aeruginosa. Format: binding, Pseudomonas aeruginosa. The text has this: For IgG expression, the VH and VL chains of selected antibodies were cloned into human IgG1 expression vectors, co-expressed in HEK293 cells, and purified by protein A affinity chromatography as described (Persic, L., et al., Gene 187, 9-18 (1997)). Human IgG1 antibodies made with the variable regions from these selected serotype independent phage were confirmed for P. aeruginosa specificity and prioritized for subsequent analysis by whole cell binding to dominant clinically relevant serotypes by FACS analysis (FIG. 1F), since this method is more stringent than ELISA. For the flow cytometry based binding assays mid-log phase P. aeruginosa strains were concentrated in PBS to an OD650 of 2.0. After incubation of antibody (10 μg/mL) and bacteria (˜1×10^7 cells) for 1 hr at 4° C. with shaking, washed cells were incubated with an ALEXA FLUOR […] goat anti-human IgG antibody (Invitrogen, Carlsbad, Calif.) for 0.5 hr at 4° C. Washed cells were stained with BACLIGHT™ green bacterial stain as recommended (Invitrogen, Carlsbad, Calif.). Samples were run on a LSR II flow cytometer (BD Biosciences) and analyzed using BD FacsDiva (v. 6.1.3) and FlowJo (v. 9.2; TreeStar).
To test if Psl expression in vivo is maintained, mice were injected intraperitoneally with P. aeruginosa isolates followed by harvesting of bacteria by peritoneal lavage four hours post-infection. The presence of Psl was analyzed with a control antibody and Cam-003 by flow cytometry as conditions for antibody binding are more stringent and allow for quantification of cells that are positive or negative for Psl expression. For ex vivo binding, bacterial inocula (0.1 ml) was prepared from an overnight TSA plate and delivered intraperitoneally to BALB/c mice. At 4 hr. following challenge, bacteria were harvested, RBCs lysed, sonicated and resuspended in PBS supplemented with 0.1% Tween-20 and 1% BSA. Samples were stained and analyzed as previously described in Example 1. […] Within the inocula, Psl was not detected for strain 6077 and was minimally detected for strains PAO1 (O5) and 6206 (O11-cytotoxic).
The level of Psl expression/accessibility on the surface of P. aeruginosa strains PAO1 and 6206 in the acute pneumonia model was also assessed. Bacteria prepared from overnight-incubated, confluent plates, as described above, were intranasally administered to BALB/c mice. At 4 and 24 hours post-infection, bacteria were recovered from the lungs by bronchoalveolar lavage. Samples were stained and analyzed as previously described in Example 1.

The results in this text go back to patent US10370436B2, “Anti-pseudomonas Psl binding molecules and uses thereof” (priority 2011, dated 2019).

For the substance “Cam-003: human IgG1 anti-Psl monoclonal antibody, VH SEQ ID NO: 1 and VL SEQ ID NO: 2”, in assay [1], the OPK activity result is given as “mediated potent killing of all mucoid P. aeruginosa isolates that were tested”. For the same substance, in the assay with P. aeruginosa PAO10 LPS, the “time within which all mice died” value is listed as at most 18 h. Besides, the “inhibition of association of PAO1.lux to A549 cells” value in assay [2] is recorded as “most active at inhibiting P. aeruginosa cell attachment to A549 lung epithelial cells”. Moreover, the “staining of bacteria by flow cytometry” value is on record as “minimal” in assay [3] (6206, bronchoalveolar lavage 4 hours post-infection, FIG. 5D); “Strong Cam-003 staining” in assay [3] (PAO1, bronchoalveolar lavage 4 hours post-infection, FIG. 5D); “strong Cam-003 staining” in assay [3] (PAO1 and 6206, bronchoalveolar lavage 24 hours post-infection, FIG. 5E); “strong Cam-003 staining” in assay [3] (three wild type strains harvested by peritoneal lavage 4 hr after intraperitoneal challenge, FIG. 5C). Moreover, the “reactivity by flow cytometry after in vivo passage” value in assay [3] (PAO1ΔpslA) is “unable to react with Cam-003”.
